Blank lines part the entries; values can stand above or below the compound they belong to. The source made the active and inactive calls.
Assays:
Bcl-2-related protein A1 = biological target: T1, Bcl-2-related protein A1 (Mus musculus, UniProt Q07440); type: functional;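 further: confirmatory dose–response counterscreen on Bfl-1, used to check hits from a UBC13 polyubiquitin inhibitor campaign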
T1 sequence (Q07440 whole entry): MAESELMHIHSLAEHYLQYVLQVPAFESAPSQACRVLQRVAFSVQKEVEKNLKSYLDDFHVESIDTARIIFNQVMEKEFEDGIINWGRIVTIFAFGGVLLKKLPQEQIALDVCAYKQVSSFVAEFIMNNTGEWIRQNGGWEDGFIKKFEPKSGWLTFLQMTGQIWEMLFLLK

[1] = biological target: T2, Ubiquitin-conjugating enzyme E2 N (Homo sapiens, UniProt P61088); type: functional
T2 sequence (P61088 whole entry): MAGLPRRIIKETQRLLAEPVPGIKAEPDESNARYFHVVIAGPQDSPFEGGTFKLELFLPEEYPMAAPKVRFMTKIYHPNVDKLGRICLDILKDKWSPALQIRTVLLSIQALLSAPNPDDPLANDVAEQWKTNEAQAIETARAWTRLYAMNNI

[2] = biological target: T2, Ubiquitin-conjugating enzyme E2 N; type: functional; remark: listed apart in the source
[3] = biological target: G-protein coupled receptor 55 (Homo sapiens, UniProt Q9Y2T6); assay: inhibition of LPI-stimulated GPR55 beta-arrestin translocation – imaging, U2OS, beta-arrestin-GFP, LPI agonist, primary screen (AID 2013); type: functional;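 further: antagonist potency measured as reduced agonist-driven arrestin aggregation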
[4] = blockers of HIV-1 envelope-mediated cell-cell fusion – cherry-pick, dose response (AID 652057); type: functional, cell-based
[5] = viability loss in CEM21 cells – cell-based, CellTiter-Glo luminescence, cherry-picked, cytotoxicity control for viral fusion inhibitor project, dose response (AID 652042); type: functional;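 further: potency for signal decrease meaning cytotoxicity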
[6] = off-target signal loss in HeLa-CEM21 co-culture – HeLa F-luc CTL cells, cherry-picked, counter-screen for HIV-1 Env fusion inhibitor project, dose response (AID 652040); type: functional, cell-based;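 further: potency for signal decrease marking cytotoxic or nonspecific inhibition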
[7] = HIV-1 AD8 envelope cell-cell fusion blockers – cherry-pick, dose response (AID 652062); type: functional, cell-based;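 further: luciferase signal from cell-cell fusion driven by HIV-1 clade B AD8 Env; potency is for inhibitors of fusion seen as a drop in luminescence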
Cytochrome P450 2C19 = Cytochrome P450 2C19 (Homo sapiens, UniProt P33261); assay: Cytochrome panel assay with activity outcomes. Panel member name: p450-cyp2c19 Compounds with AC50 equal or less than 10 uM are considered active; type: functional
Cytochrome P450 1A2 = biological target: T3, Cytochrome P450 1A2 (Homo sapiens, UniProt P05177);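 further: PubChem cytochrome P450 panel assay, CYP1A2 panel member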
T3 sequence (P05177 whole entry): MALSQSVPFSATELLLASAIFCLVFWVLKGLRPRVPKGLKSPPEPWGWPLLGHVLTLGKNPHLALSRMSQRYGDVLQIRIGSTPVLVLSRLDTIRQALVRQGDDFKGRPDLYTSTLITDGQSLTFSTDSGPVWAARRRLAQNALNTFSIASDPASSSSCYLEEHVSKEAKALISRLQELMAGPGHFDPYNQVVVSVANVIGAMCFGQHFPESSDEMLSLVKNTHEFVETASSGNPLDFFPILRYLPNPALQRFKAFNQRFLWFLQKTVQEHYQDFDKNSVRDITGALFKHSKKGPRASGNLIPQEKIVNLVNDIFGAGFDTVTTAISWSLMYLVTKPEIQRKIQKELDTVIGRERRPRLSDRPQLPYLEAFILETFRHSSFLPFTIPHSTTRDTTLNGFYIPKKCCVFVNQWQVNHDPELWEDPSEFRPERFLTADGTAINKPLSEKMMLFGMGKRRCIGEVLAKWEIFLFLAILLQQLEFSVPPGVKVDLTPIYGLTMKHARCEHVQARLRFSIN

Cytochrome P450 2D6 = Cytochrome P450 2D6 (Homo sapiens, UniProt P10635);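 further: CYP2D6 member of a cytochrome P450 panel assay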
Sequence of Cytochrome P450 2D6 (P10635 whole entry): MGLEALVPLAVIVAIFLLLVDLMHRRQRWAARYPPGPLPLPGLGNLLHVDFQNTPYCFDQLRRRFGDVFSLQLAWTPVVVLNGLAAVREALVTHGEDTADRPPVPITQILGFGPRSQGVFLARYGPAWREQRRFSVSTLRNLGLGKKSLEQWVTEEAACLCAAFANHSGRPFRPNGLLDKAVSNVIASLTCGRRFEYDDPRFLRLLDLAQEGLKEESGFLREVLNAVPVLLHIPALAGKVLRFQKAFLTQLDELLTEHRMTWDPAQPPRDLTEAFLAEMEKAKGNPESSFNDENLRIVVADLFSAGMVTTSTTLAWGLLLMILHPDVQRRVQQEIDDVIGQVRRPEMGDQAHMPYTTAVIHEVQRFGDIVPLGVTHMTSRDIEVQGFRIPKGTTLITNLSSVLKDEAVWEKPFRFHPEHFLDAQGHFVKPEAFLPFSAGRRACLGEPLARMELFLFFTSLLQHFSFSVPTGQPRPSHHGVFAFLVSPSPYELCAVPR

Sequence of G-protein coupled receptor 55 (Q9Y2T6 whole entry, the tested form may be a part): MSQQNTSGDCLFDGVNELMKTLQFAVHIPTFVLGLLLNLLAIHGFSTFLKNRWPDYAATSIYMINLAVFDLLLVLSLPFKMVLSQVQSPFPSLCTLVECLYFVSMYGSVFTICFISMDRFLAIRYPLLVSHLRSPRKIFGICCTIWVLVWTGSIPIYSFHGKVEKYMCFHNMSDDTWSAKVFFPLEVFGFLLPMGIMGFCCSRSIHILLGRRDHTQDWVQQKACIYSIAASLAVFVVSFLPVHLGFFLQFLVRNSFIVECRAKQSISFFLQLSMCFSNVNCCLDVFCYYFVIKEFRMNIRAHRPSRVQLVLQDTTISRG
Sequence of Cytochrome P450 2C19 (P33261 whole entry): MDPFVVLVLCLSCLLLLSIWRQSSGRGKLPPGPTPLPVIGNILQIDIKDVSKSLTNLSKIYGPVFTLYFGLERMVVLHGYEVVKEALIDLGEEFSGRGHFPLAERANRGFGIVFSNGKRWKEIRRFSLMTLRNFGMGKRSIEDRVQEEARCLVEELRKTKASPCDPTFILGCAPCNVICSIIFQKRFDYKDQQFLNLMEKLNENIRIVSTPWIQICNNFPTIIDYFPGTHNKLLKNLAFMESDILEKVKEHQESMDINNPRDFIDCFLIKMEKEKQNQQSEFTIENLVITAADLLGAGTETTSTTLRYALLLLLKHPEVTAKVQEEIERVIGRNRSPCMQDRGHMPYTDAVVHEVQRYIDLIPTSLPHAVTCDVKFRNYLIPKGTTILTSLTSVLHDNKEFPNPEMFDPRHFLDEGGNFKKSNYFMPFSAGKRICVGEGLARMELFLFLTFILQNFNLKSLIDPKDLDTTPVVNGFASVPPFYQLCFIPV

IC50 (Bcl-2-related protein A1): > 20 µM (inactive)
IC50 [1]: 8.84 µM (active)
IC50 [2]: 8.44 µM (active)
Compound: COc1ccc(N(C(=O)c2snc(C(N)=O)c2N)C(C(=O)NC2CCCC2)c2ccco2)cc1 (configuration not stated)

Compound: Cc1ccc(C(O)(c2ccccc2)c2ccccc2C(C)N(C)C)c(C)c1 (configuration not stated)
IC50 [3]: 0.799 µM (active)
AC50 [4]: 20.1 µM (active)
AC50 [5]: 19.6 µM (active)
AC50 [6]: 39 µM (active)
AC50 [7]: 30.5 µM (active)

IC50 [3]: 7.26 µM (active)
Compound: NC(=O)c1cc(-c2ccccc2)nc(N2CCOCC2)n1

Compound: NS(=O)(=O)c1cc(C(=O)O)c(Cl)c([N+](=O)[O-])c1Cl
AC50 (Cytochrome P450 2C19): inconclusive
AC50 (Cytochrome P450 1A2): 1.26 µM (inconclusive)
AC50 (Cytochrome P450 2D6): inconclusive

From ChEMBL document CHEMBL1201862, “PubChem BioAssay data set” (2004)
